Experimental data published in patent US7776572B2, “Method for reducing loss of enzyme activity during storage” (Corning Incorporated, priority 1996, dated 2010).

Experiments:
[1] = tested on: IgG protein; test: In-mold coating of 24-well polystyrene plates, protein binding by colloidal gold staining; conditions: 1% isopropanol solution
Method: The in-mold coating aspects of the invention were tested by molding 24-well polystyrene plates. […] The 0.01% concentration was estimated to produce less than one monolayer of surfactant on the finished product, while the 0.1% concentration produced about 7 monolayers. The surfactant was applied to the mold using a Crown sprayer (Crown Industrial Products, Hebron, Ill.; Catalog #8011), which produces a sufficiently fine spray of droplets to uniformly coat the mold. The mold was sprayed before each part was made.

[2] = tested on: MDCK cells; test: MDCK cell attachment to coated polystyrene 24-well plates; assay type: cell-based; conditions: coated PS 24-well, gamma sterilized, media with 5% FBS, two days, visual
Method: The procedures used were as follows. Polystyrene 24-well plates were coated with the non-ionic surfactants listed in Table 5 in accordance with the procedures described in Materials and Methods. Uncoated plates were used as a control. For comparison, plates with a covalently attached acrylamide coating (Corning Costar Catalog #2500) and with a stearic acid coating were also tested. The stearic acid coating was applied in the same manner as the non-ionic surfactants again using a 0.1% (w/v) solution.
The plates were gamma sterilized at 1.5 Mrad and then inoculated with 5.6×10^4 MDCK […] per well in 1 ml of complete media containing 5% FBS (Fetal Bovine Serum). Incubation was carried out at 37° C. in a 5% CO2 atmosphere for two days. The plates were fixed and stained, and cell attachment was noted. Following this, the wells were stained using the colloidal gold technique to detect bound protein. Only visual observations were made.
Experiments were also performed with cells suspended in serum. The cells used in these experiments were MDCK cells. The surfactants used were the same as used in Table 5. Again, reduced binding of the cells to surfaces treated with a non-ionic surfactant was observed.

[3] = tested on: bound protein; test: Colloidal gold staining of bound protein after MDCK culture in media containing 5% FBS, visual; conditions: colloidal gold after cell culture, visual observation
In short: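 Polystyrene wells coated with non-ionic surfactants, gamma-sterilized at 1.5 Mrad, seeded with 5.6×10^4 MDCK cells per well in medium with 5% FBS and cultured 2 days at 37 °C, 5% CO2. After fixing, bound protein detected by colloidal gold staining; visual assessment only.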

[4] = tested on: IgG (horse); test: IgG binding to 24-well plates, surfactant dried or not dried before H2O rinse, colloidal Au; conditions: 0.5% surfactant in H2O/isopropanol (90/10)
Method: Duplicate 24-well plates were prepared as follows. Individual wells were filled with 3 ml of non-ionic surfactants at 0.5% (weight/volume) in H2O/isopropanol (90/10 weight/volume).
The duplicate plates were incubated for 30 minutes at room temperature on a rocker table and then emptied. One plate was tapped out and then allowed to dry at room temperature in a hood. It was then rinsed 5× with dI H2O. The second plate was not allowed to dry, but instead was immediately rinsed 5× with H2O. The plates were then tested for protein binding by filling each well with 0.5 ml of IgG (horse) at 10 μg/ml in PBS buffer and incubating for 30 minutes on a rocker table at room temperature. The plates were then rinsed with dI H2O and stained overnight with colloidal Au.

[5] = tested on: GAM-IgG-HRP (goat-anti-mouse-IgG-horseradish peroxidase enzyme labeled antibody); test: Bound enzyme labeled antibody on strips exposed to aqueous surfactant, rinsed or not rinsed, ABTS readout; conditions: 0.1% surfactant in H2O/isopropanol (95/5), not dried
Method: Medium binding (catalog #2587) and high binding (catalog #2581) polystyrene 96-well plates (8-well strips) manufactured by Corning Costar were used as follows. […] Strips were incubated for 30 minutes at room temperature on a rocker table. Strips were then emptied and tapped out. […] Immediately following this procedure, each well was aliquoted 0.10 ml of GAM-IgG-HRP (goat-anti-mouse-IgG-horseradish peroxidase enzyme labeled antibody; Kirkegaard and Perry, Gaithersburg, Md., Catalog #074-1806) at 1.0 μg/ml in PBS buffer pH=7.4). Strips were incubated for one hour at room temperature on a rocker table. Strips were then rinsed 5× with PBS buffer containing 0.02% Tween-20 followed by post rinsing with H2O. […] Absorbance at 405 nm was measured on a Cambridge Technologies #7520 Plate Reader.

[6] = tested on: IgG; test: Coating durability using water washes, IgG binding by colloidal gold
In short: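 24-well polystyrene plates coated with surfactants; durability tested by water washes on a rocker. IgG incubated 30 minutes at 23° C. with rocking, then rinsed 3× with water.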

[7] = tested on: BSA; test: Polymer blends molded into petri dishes, BSA binding by colloidal gold; conditions: blended at 5% into polypropylene; silver enhancer
Method: (§1) Low binding non-ionic surfactant molecules were blended at 5% (except as noted in Table 13) into a base polymer using a twin screw extruder, then injection molded into the shape of 35 mm petri dishes. Proteins tested were BSA and Fetal Bovine Serum (FBS). Protein binding was determined using a colloidal gold staining procedure as described above. In the case of the polypropylene and EVA blends, a silver enhancer was used (Sigma Chem. Co., St, Louis, Mo., Kit #SE-100).

[8] = tested on: Fetal Bovine Serum (FBS); test: Polymer blends molded into petri dishes, FBS protein binding by colloidal gold; conditions: blended at 5% into polypropylene; silver enhancer
Method: as §1

| Compound | protein binding of in-mold coated part [1] | MDCK Attachment [2] | Visual Color Upon Protein Staining [3] | Absorbance (550 nm) Dried before H2O rinse ([4]; dried, then rinsed 5x) | Absorbance (550 nm) H2O rinsed before drying ([4]; not dried, rinsed 5x immediately) | Absorbance (405 nm) High Binding Polystyrene No Rinse ([5]; not rinsed) | Absorbance (405 nm) Medium Binding Polystyrene No Rinse ([5]; not rinsed) | Absorbance (405 nm) High Binding Polystyrene Rinsed ([5]; rinsed 5x with dI H2O) | Absorbance (405 nm) Medium Binding Polystyrene Rinsed ([5]; rinsed 5x with dI H2O) | Absorbance (550 nm) Initial ([6]; coated polystyrene, no water wash) | Absorbance (550 nm) 1 Time 1 hr 23° C. ([6]; dI H2O wash 1 time, 1 hr, 23° C.) | Absorbance (550 nm) 1 Time 24 hr 23° C. ([6]; dI H2O wash 1 time, 24 hr, 23° C.) | Absorbance (550 nm) 1 Time 24 hr 37° C. ([6]; dI H2O wash 1 time, 24 hr, 37° C.) | Absorbance (550 nm) 1 Time 24 hr 70° C. ([6]; dI H2O wash 1 time, 24 hr, 70° C.) | Absorbance (550 nm) 6 Times 30 min each 23° C. ([6]; dI H2O wash 6 times, 30 min each, 23° C.) | Bound Protein Absorbance (550 nm) BSA [7] | Bound Protein Absorbance (550 nm) FBS [8] |
| --- | --- | --- | --- | --- | --- | --- | --- | --- | --- | --- | --- | --- | --- | --- | --- | --- | --- |
| CCCCCCCCCCCCCCCCCC(=O)OCC(O)CO (centres unmarked) [GLYCEROL MONO-STEARATE] | low protein binding | – | – | – | – | – | – | – | – | – | – | – | – | – | – | – | – |
| PEO(20) SORBITOL MONO-LAURATE | – | None | None | 0.14-0.16 | 0.13-0.16 | 0.00 | 0.00 | 2.00 | 1.90 | 0.00 | 0.02 | 0.05 | 0.10 | 0.10 | 0.10 | 0.153 | 0.270 |
